Assay results published in patent US20260232666A1, “COMPOSITIONS AND METHODS FOR INHIBITION OF RAS” (TheRas, Inc., priority 2023, published 2026).

Legend:
[1] = target: T1, Avi-KRAS G12C (1-169) GppNHp/RAF1 RBD-3×FLAG (52-151) (Homo sapiens, UniProt P01116, G12C); test: Raf1 RBD-KRAS G12C-GppNHp disruption assay (protein:protein interaction HTRF); format: biochemical
T1 construct: Avi-KRAS G12C (1-169) GppNHp; Avi (N)
Procedure: Biological Example 2: Disrupting KRAS G12C-Effector Binding (Protein: Protein Interaction HTRF Assay)
A protein: protein interaction (PPI) Homogeneous Time Resolved Fluorescence (HTRF) assay was used to determine the effectiveness of compounds of the present disclosure in disrupting KRAS G12C protein and effector (RAF1 Ras Binding Domain (RBD)) binding.
The HTRF assay used the following reagents and proteins: 50 nM Avi-KRAS G12C (1-169) GppNHp/RAF1 RBD-3×FLAG (52-151); 35 nM Avi-PI3K RBD-3×FLAG; Assay Buffer: 50 mM Tris pH 7.5, 100 mM NaCl, 5 mM MgCl2, 0.1% BSA, 0.01% Tween 20, 10% DMSO; Bead Buffer: 50 mM Tris pH 7.5, 0.01% Tween 20; Assay volume: 20 μL (384 well plate-low volume format); and Compound titration: 30-0.02 μM, 3× dilution series.
The HTRF assay employed the following protocol:
Compounds were dispensed in assay plate (384-well, Grenier Bio-One #784075) using Echo (model 555) with dose response settings: 200 nL final volume, titration from 100 μM as a 10-point dilution series. KRAS proteins were prepared in assay buffer, and dispensed on plates, 5 μL per well, then incubated for 1 h at room temperature, with 700 rpm shaking. RAF1 RBD were prepared in assay buffer, dispensed onto plates, 5 μL per well, and then incubated for 1 h at room temperature, with 700 rpm shaking. Reagent mix was then prepared and dispensed on plates, 10 μL per well, and then incubated for 1 h at room temperature, with 700 rpm shaking.
Plates were analyzed on an Envision plate reader using the following setting: Excitation 320 nm, Bandwidth 75 nm; Emission 615 nm, Bandwidth 85 nm; Gain 100%; Flashes 100; Lag 60 μs. Data was reported as percentage of activity, with DMSO as 100%. Data was plotted and analyzed using Prism 8.
The percent of modification of GppNHp, GTP, or GDP loaded KRAS G12C by MALDI-TOF MS, biochemical Raf1 RBD-KRAS G12C-GppNHp disruption assay IC50, and pERK inhibition IC50 of selected compounds described herein are shown in Table 4. For percent of modification at 15 minutes (MALDI-TOF MS) of GppNHp, GTP, or GDP loaded KRAS G12C: A: percent of modification ≥70%; B: 50≤percent of modification <70%; C: 10%≤percent of modification <50%; D: percent of modification <10%. […] For pERK inhibition in H358 cell assay: A: IC50≤0.1 μM; B: 0.1 μM<IC50≤1 μM; C: IC50>1 μM. Blanks in the table represent that compound was not tested in the indicated assay.

[2] = target: T2, GppNHp-loaded KRAS4b (amino acids 1-169) G12C/C118S protein (Homo sapiens, UniProt P01116, C118S/G12C); test: Covalent cysteine 12 modification by MALDI-TOF MS, GppNHp-loaded KRAS G12C; format: binding; details: 15 minutes reaction time point
T2 construct: KRAS4b (amino acids 1-169) G12C/C118S protein; made in house
How it was run: (§1)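 Covalent labelling is scored at 15 min by MALDI-TOF mass spectrometry, using 1 μM protein with compound at a 1:2.5 protein-to-compound ratio at room temperature.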

pERK in NCI-H358 cells = test: Cell-based pERK HTRF assay (pERK inhibition in H358 cells); details: 30 min incubation
How it was run: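 NCI-H358 cells were seeded at 4×10^4 cells/well in RPMI/10% FBS, then treated next day for 30 min at 0.25% DMSO (9-point, 3-fold series from 75 μM). Lysates were read by HTRF (d2/Eu cryptate antibody pair, 615 nm emission) after 4–24 h at room temperature to give pERK IC50.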

[3] = target: T3, GDP-loaded KRAS4b (amino acids 1-169) G12C/C118S protein (Homo sapiens, UniProt P01116, C118S/G12C); test: Covalent cysteine 12 modification by MALDI-TOF MS, GDP-loaded KRAS G12C; format: binding; details: 15 minutes reaction time point
T3 construct: KRAS4b (amino acids 1-169) G12C/C118S protein; made in house
How it was run: as §1

[4] = target: T4, GTP-loaded KRAS4b (amino acids 1-169) G12C/C118S protein (Homo sapiens, UniProt P01116, C118S/G12C); test: Covalent cysteine 12 modification by MALDI-TOF MS, GTP-loaded KRAS G12C; format: binding; details: 15 minutes reaction time point
T4 construct: KRAS4b (amino acids 1-169) G12C/C118S protein; made in house
How it was run: as §1

| SMILES | IC50 [1] [nM] | GppNHp-KRAS G12C percent of modification [2] | IC50 (pERK in NCI-H358 cells; Homo sapiens, NCI-H358, 0.5 h) [nM] | GDP-KRAS G12C percent of modification [3] | GTP-KRAS G12C percent of modification [4] | IC50 (pERK in NCI-H358 cells) [nM] |
| --- | --- | --- | --- | --- | --- | --- |
| C=CC(=O)N1CC[C@@H](N(C)c2nc(OC[C@@]34CCCN3C[C@H](F)C4)nc3cc(-c4ccc(F)c5sc(N)c(C#N)c45)c(F)cc23)[C@H]1C [Compound 15] | < 500 |  |  |  |  |  |
| [2H]C1([2H])CN2C[C@H](F)C[C@]2(COc2nc(N3C[C@@H](C)N(C(=O)C=C)C[C@@H]3C)c3cc(C(F)(F)F)c(-c4ccc(F)c5sc(N)c(C#N)c45)c(F)c3n2)C1 [Compound 125] | < 500 | A (percent of modification ≥70%) |  |  |  |  |
| C=CC(=O)N1CC[C@@H](N(C)c2nc(OC[C@]34CCCN3C[C@H](F)C4)nc3c(F)c(-c4ccc(F)c5sc(N)c(C#N)c45)c(Cl)cc23)[C@H]1C [Compound 162] | < 500 | A (percent of modification ≥70%) | < 100 |  |  |  |
| C=CC(=O)N1CC[C@@H](N(C)c2nc(OC[C@@]34CCCN3C[C@H](F)C4)nc3c(F)c(-c4ccc(F)c5sc(N)c(C#N)c45)c(C(F)(F)F)cc23)[C@H]1C [Compound 6] | < 500 |  |  | B (50≤percent of modification <70%) | C (10%≤percent of modification <50%) |  |
| C=CC(=O)N1CC[C@@H](N(C)c2nc(OC[C@@]34CCCN3C[C@H](F)C4)nc3cc(-c4ccc(F)c5sc(N)c(C#N)c45)c(C#N)cc23)[C@H]1C [Compound 16] | < 500 |  | < 100 |  |  |  |
| [2H]C1([2H])CN2C[C@H](F)C[C@]2(COc2nc(N(C)[C@@H]3CCN(C(=O)C=C)[C@@H]3C)c3cc(C(F)(F)F)c(-c4ccc(F)c5sc(N)c(C#N)c45)c(F)c3n2)C1 [Compound 128, 4-(4-(((2R,3R)-1-acryloyl-2-methylpyrrolidin-3-yl)(methyl)amino)-8-fluoro-2-(((2R,7aS)-2-fluorotetrahydro-1H-pyrrolizin-7a(5H)-yl-6,6-d2)methoxy)-6-(trifluoromethyl)quinazolin-7-yl)-2-amino-7-fluorobenzo[b]thiophene-3-carbonitrile] | < 500 | A (percent of modification ≥70%) | < 100 |  |  |  |
| C=CC(=O)N1CC[C@@H](N(C)c2nc(OC[C@@H]3CCCN3C)nc3c(F)c(-c4ccc(F)c5sc(N)c(C#N)c45)c(C(F)(F)F)cc23)[C@@H]1C [Compound 38] | < 500 | A (percent of modification ≥70%) | < 100 |  |  |  |
| C=CC(=O)N1CC[C@@H](N(CC)c2nc(OC[C@]34CCCN3C[C@H](F)C4)nc3c(F)c(-c4ccc(F)c5sc(N)c(C#N)c45)ccc23)[C@H]1C [Compound 170] | < 500 | A (percent of modification ≥70%) | < 100 |  |  |  |
| C=CC(=O)N1CC[C@@H](N(C)c2nc(OC[C@]34CCCN3C[C@H](F)C4)nc3c(F)c(-c4ccc(F)c5sc(N)c(C#N)c45)c(C(F)(F)F)cc23)[C@H]1C [Compound 157] | < 500 |  | < 100 |  |  |  |
| C=CC(=O)N1CC[C@@H](N(C)c2nc(OC[C@@]34CCCN3C[C@H](F)C4)nc3c(F)c(-c4ccc(F)c5sc(N)c(C#N)c45)c(C(F)(F)F)cc23)[C@@H]1C (atropisomer, axis not shown) [Compound 71] | 500 to 5000 |  |  |  |  | 100 to 1000 |
| [2H]C1([2H])CN2C[C@H](F)C[C@]2(COc2nc(N(CC)[C@@H]3CCN(C(=O)C=C)[C@@H]3C)c3cc(F)c(-c4ccc(F)c5sc(N)c(C#N)c45)cc3n2)C1 [Compound 123] | < 500 |  | < 100 |  |  |  |
| [2H]C1([2H])CCC2(C([2H])([2H])Oc3nc(N4CC(C)N(C(=O)C=C)CC4C)c4cc(C(F)(F)F)c(-c5ccc(F)c6sc(N)c(C#N)c56)c(F)c4n3)CC(F)CN12 (centres unmarked) [Compound 96] | < 500 |  | < 100 |  |  |  |
| C=CC(=O)N1CC[C@@H](N(C)c2nc(OC[C@@]34CCCN3C[C@H](OC)C4)nc3c(F)c(-c4ccc(F)c5sc(N)c(C#N)c45)c(Cl)cc23)[C@H]1C [Compound 160] | < 500 |  | < 100 |  | A (percent of modification ≥70%) |  |
| C=CC(=O)N1CC[C@H](N(C)c2nc(OC[C@@]34CCCN3C[C@H](F)C4)nc3c(F)c(-c4ccc(F)c5sc(N)c(C#N)c45)c(C(F)(F)F)cc23)[C@@H]1C [Compound 5] | < 500 |  |  | A (percent of modification ≥70%) |  |  |
| C=CC(=O)N1CC[C@@H](N(C)c2nc(OC[C@@H]3CCCN3CC)nc3c(F)c(-c4ccc(F)c5sc(N)c(C#N)c45)c(Cl)cc23)[C@H]1C [Compound 89] | < 500 |  | < 100 | A (percent of modification ≥70%) |  |  |
| C[C@@H]1[C@H](N(C)c2nc(OC[C@@]34CCCN3C[C@H](F)C4)nc3c(F)c(-c4ccc(F)c5sc(N)c(C#N)c45)c(C(F)(F)F)cc23)CCN1C(=O)[C@H](F)Cl (atropisomer, axis not shown; (aS)) [Compound 182, 2-amino-4-((R)-4-(((2R,3R)-1-((R)-2-chloro-2-fluoroacetyl)-2-methylpyrrolidin-3-yl)(methyl)amino)-8-fluoro-2-(((2R,7aS)-2-fluorotetrahydro-1H-pyrrolizin-7a(5H)-yl)methoxy)-6-(trifluoromethyl)quinazolin-7-yl)-7-fluorobenzo[b]thiophene-3-carbonitrile] |  | D (percent of modification <10%) | 100 to 1000 | D (percent of modification <10%) | D (percent of modification <10%) |  |
| C=CC(=O)N1CC[C@@H](N(C)c2nc(OC[C@@]34CCCN3C[C@H](F)C4)nc3c(F)c(-c4ccc(F)c5sc(N)c(C#N)c45)ccc23)[C@@H]1C [Compound 43] | < 500 | A (percent of modification ≥70%) | < 100 |  |  |  |
| CCN(c1nc(OC[C@@]23CCCN2C[C@H](F)C3)nc2c(F)c(-c3ccc(F)c4sc(N)c(C#N)c34)c(C(F)(F)F)cc12)[C@H]1CCN(C(=O)[C@H](F)Cl)C1 [Compound 187] |  | B (50≤percent of modification <70%) | < 100 | B (50≤percent of modification <70%) | B (50≤percent of modification <70%) |  |
